The target of this experiment is T1, β-cell KATP channel (human SUR1 and human Kir6.2) (Homo sapiens, UniProt Q09428).
T1 construct: gene ABCC8; SUR1 and Kir6.2 co-expressed in COS-1 cells; with ATP-sensitive inward rectifier potassium channel 11
Description: whole-cell patch clamp, inhibition of diazoxide-induced K+ current. In kind it is cell-based. For orientation: In patch-clamp work, channel activity is measured electrically.

T1 sequence (Q09428 whole entry): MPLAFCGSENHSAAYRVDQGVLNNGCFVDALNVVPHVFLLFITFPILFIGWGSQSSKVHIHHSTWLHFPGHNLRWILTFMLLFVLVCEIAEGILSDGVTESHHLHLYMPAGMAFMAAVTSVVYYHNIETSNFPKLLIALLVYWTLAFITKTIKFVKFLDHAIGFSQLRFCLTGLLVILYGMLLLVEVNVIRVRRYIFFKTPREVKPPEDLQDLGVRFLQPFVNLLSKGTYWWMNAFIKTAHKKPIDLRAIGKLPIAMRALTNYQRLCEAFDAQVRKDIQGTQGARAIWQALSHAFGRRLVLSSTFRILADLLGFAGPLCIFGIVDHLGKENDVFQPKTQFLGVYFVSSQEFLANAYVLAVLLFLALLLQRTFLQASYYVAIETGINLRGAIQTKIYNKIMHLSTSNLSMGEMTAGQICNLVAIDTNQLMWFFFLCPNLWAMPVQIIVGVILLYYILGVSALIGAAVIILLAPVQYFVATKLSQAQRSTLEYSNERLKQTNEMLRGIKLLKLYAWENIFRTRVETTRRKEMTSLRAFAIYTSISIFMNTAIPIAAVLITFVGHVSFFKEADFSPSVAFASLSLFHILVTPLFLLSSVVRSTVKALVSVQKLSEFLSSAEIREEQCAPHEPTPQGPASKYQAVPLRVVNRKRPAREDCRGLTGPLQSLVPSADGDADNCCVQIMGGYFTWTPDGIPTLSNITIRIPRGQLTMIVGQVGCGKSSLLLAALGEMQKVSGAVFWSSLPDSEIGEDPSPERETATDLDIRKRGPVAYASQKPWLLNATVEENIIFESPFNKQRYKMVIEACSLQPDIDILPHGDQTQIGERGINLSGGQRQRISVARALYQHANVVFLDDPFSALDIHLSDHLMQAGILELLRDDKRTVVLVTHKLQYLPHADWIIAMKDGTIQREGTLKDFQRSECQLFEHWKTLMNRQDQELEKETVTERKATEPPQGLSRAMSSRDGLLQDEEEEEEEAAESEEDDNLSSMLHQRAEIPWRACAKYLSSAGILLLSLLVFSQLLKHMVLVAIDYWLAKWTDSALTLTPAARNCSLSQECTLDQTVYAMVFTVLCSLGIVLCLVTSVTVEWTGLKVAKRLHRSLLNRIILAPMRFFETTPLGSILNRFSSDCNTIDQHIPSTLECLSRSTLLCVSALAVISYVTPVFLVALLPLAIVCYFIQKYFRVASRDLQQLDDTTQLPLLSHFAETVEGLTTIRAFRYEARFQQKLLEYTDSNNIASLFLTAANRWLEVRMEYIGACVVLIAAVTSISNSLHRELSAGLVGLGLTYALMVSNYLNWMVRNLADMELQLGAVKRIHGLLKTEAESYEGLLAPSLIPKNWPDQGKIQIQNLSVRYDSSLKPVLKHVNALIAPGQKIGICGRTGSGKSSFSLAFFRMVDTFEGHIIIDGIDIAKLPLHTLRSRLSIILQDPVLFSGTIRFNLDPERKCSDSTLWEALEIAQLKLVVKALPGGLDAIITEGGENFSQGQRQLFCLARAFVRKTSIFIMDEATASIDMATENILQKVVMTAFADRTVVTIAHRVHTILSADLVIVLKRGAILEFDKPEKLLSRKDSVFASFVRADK
T1 sequence (Q14654 whole entry partner): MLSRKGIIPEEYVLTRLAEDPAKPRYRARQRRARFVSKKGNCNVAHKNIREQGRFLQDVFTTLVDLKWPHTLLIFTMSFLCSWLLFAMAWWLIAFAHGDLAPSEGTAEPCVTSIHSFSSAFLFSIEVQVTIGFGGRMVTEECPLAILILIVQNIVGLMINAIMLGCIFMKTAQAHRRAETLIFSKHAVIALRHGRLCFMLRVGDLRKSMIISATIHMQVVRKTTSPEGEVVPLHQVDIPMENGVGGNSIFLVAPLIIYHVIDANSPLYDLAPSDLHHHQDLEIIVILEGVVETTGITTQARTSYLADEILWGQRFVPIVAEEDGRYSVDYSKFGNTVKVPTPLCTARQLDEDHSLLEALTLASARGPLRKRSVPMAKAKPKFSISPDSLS

For the molecule `Cc1ccc(S(=O)(=O)NC(=O)NN2CC3CCCC3C2)cc1` (stereo not shown) [gliclazide], the IC50 (as a rule, the concentration at which inhibition is half-maximal) was 860 nM.

Values taken from publication PMC5072725, “A Novel Diphenylthiosemicarbazide Is a Potential Insulin Secretagogue for Anti-Diabetic Agent” (PLoS ONE, 2016).
